Columns and labels:
[1] = target: recombinant P. falciparum M1 aminopeptidase (rPfA-M1); assay: Enzymatic analysis: aminopeptidase activity with fluorogenic peptide substrates (NHMec release) and inhibition; assay type: biochemical, Plasmodium falciparum; settings: for Km / kcat: substrate of rPfA-M1, pH 7.5
Method: Aminopeptidase activity was determined by measuring the release of the fluorogenic leaving group, 7-amino-4-methyl-coumarin (NHMec) from the fluorogenic peptide substrates H-Leu-NHMec, H-Ala-NHMec, H-Arg-NHMec, H-Met-NHMec, H-Phe-NHMec, H-Gly-NHMec, H-Val-NHMec, H-Ile-NHMec and H-Pro-NHMec. Reactions were carried out in 96-well microtitre plates (200 μl total volume, 30 min, 37° C.) using a spectrofluorimeter (Bio-Tek KC4) with excitation at 370 nm and emission at 460 nm. […] […] Inhibition experiments were carried out in the presence of substrate.

[2] = tested on: P. c. chabaudi; settings: cited from earlier work
[3] = target: T1, PfA-M17 (Plasmodium falciparum, UniProt Q8IL11); settings: cited from earlier work
T1 sequence (Q8IL11 84-605 limits assumed): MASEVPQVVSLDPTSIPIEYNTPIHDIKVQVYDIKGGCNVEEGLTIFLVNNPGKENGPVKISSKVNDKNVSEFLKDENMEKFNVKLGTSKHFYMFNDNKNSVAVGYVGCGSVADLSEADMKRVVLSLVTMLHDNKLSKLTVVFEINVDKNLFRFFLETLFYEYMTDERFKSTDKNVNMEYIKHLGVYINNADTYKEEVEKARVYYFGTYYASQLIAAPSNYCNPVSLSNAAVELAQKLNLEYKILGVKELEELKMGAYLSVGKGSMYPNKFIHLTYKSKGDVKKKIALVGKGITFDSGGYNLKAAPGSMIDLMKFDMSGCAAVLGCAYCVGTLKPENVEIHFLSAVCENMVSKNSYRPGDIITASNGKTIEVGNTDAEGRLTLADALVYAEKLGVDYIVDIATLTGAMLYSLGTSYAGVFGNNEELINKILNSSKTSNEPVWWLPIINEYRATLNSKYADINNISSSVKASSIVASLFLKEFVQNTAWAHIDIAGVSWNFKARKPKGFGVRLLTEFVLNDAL

Molecule	Ki ([1]; inhibition of rPfA-M1, in the presence of substrate) [nM]	reduction of murine infection of P. c. chabaudi compared to controls [2] [%]	inhibition of PfA-M17 [3]	Km [1] [µM]	kcat [1] [s⁻¹]
NC(CCc1ccccc1)P(=O)(O)CC(Cc1ccccc1)C(=O)O (stereo not shown) [Co4, hPheP[CH2]Phe]	78.3	92	inhibits	–	–
CCC(C)C(N)C(=O)Nc1ccc2c(C)cc(=O)oc2c1 (stereo not shown) [H-Ile-NHmec]	–	–	–	1710	0.040
Cc1cc(=O)oc2cc(NC(=O)[C@@H]3CCCN3)ccc12 [H-Pro-NHmec]	–	–	–	734	0.0032
Cc1cc(=O)oc2cc(NC(=O)[C@@H](N)C(C)C)ccc12 [H-Val-NHmec]	–	–	–	1070	0.036
H-Ala-NHmec	–	–	–	889	2.04
H-Arg-NHmec	–	–	–	717	1.07
H-Gly-NHmec	–	–	–	349	0.116
H-Leu-NHmec	–	–	–	330	1.52
H-Phe-NHmec	–	–	–	195	0.18

— patent US20110311511A1, “CRYSTAL STRUCTURE OF PfA-M1 AND THE PfA-M1 Co4 COMPLEX” (priority 2008, published 2011)
